The numbers were not newly measured in patent publication US20070110715A1, “Treatment of alzheimer's disease” (Ares Trading S.A., priority 2003, published 2007), which cites them from elsewhere.

The test system of this data set is Alzheimer's disease risk. Particulars: postmenopausal women using hormone replacement.

On to estrogen, for which the “reduction in disease risk (AD)” value is reported as around 50%.
